# Measured values as given in ChEMBL document CHEMBL3045133, “A 2D image-based method for modeling some c-Src tyrosine kinase inhibitors” (Med Chem Res, 2013).
# Biological target: Proto-oncogene tyrosine-protein kinase Src (Homo sapiens, UniProt P12931)
# Test: Inhibition of c-Src kinase (unknown origin)
# Chain of Proto-oncogene tyrosine-protein kinase Src (P12931 2-536 limits assumed): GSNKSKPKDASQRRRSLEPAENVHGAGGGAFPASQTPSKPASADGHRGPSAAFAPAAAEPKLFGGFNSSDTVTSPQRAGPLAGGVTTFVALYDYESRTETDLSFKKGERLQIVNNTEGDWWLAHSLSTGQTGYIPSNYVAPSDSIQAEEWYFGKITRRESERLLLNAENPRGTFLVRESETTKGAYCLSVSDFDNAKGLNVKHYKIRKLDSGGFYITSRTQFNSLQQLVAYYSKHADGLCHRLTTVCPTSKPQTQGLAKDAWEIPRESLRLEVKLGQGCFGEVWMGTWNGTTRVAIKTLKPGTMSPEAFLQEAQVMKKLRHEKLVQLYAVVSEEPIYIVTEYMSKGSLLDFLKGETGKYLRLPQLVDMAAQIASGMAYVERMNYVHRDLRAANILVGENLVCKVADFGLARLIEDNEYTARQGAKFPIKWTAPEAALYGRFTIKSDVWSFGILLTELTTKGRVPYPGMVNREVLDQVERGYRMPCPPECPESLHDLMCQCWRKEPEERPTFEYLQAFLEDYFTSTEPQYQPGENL
structure (smiles),measurement,value
Cc1ccccc1-c1cn(-c2ccccc2)c2ncnc(N)c12,IC50,6.31 µM
